{"source": "patent US20230331675A1", "about": "“AROMATIC ETHYLENE COMPOUND AND PREPARATION METHOD THEREFOR, AND INTERMEDIATE, PHARMACEUTICAL COMPOSITION, AND APPLICATION THEREOF” (GUANGZHOU MAXINOVEL PHARMACEUTICALS CO., LTD., priority 2020, published 2023)"}
{"molecular_target": "PD-1/PD-L1 (Homo sapiens (Human), UniProt Q9NZQ7)", "sequence (Q9NZQ7 19-238)": "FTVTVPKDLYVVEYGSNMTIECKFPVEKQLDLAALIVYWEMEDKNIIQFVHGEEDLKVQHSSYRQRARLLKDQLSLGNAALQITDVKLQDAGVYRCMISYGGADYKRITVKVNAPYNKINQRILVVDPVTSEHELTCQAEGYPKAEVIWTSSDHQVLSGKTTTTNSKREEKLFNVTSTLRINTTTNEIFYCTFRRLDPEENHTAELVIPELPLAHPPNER", "test": "Homogeneous time-resolved fluorescence (HTRF) binding assay", "settings": "CisBio kit, read-out: IC50 of compounds binding to PD-1/PD-L1", "text": "Effect embodiment 1: Homogenouse time-resolved fluorescence\nHomogeneous time-resolved fluorescence (HTRF) binding assay was used to determine the binding ability of the compound of the present disclosure to PD-1/PD-L1.\nThe purchased kit (CisBio, #64CUS000C-1) contained reagents required for assays such as PD-1, PD-L1, anti-tag1-Eu, Anti-tag2-XL665, dilute buffer, and detection buffer.\n1. The compound was formulated to 10 concentrations with a 3-fold gradient with 100% DMSO.\n2. The DMSO solution of the compound was added to the dilute buffer, mixed thoroughly, then transferred to a 96-well plate.\n3. PD-L1 was diluted with dilute buffer, then added to the above 96-well plate.\n4. PD-1 was diluted with dilute buffer and added to the above 96-well plate, which was then incubated at room temperature for 30 minutes.\n5. A portion of anti-tag1-Eu and a portion of anti-tag2-XL665 were added to the detection buffer, mixed thoroughly and transferred to the above 96-well plate.\n6. The mixture in the above 96-well plate was incubated at room temperature for 1 to 24 hours.\n7. HTRF values were read with Envision.", "units": {"IC50": "nM"}}
{"smiles": "N#Cc1c(/C=C/c2ccc(CN3CCCC[C@H]3C(=O)O)cc2C(F)(F)F)cccc1-c1ccccc1", "note": "[Compound 1, (S,E)-1-(4-(2-(2-Cyano-[1,1′-biphenyl]-3-yl)vinyl)-3-trifluoromethylbenzyl)piperidine-2-carboxylic acid]", "IC50": 10.2}
{"smiles": "N#Cc1c(/C=C/c2ccc(CN3CCCC[C@H]3C(=O)O)cc2Cl)cccc1-c1ccccc1", "note": "[Compound 2, (S,E)-1-(3-Chloro-4-(2-(2-cyano-[1,1′-biphenyl]-3-yl)vinyl)benzyl)piperidine-2-carboxylic acid]", "IC50": 26.3}
{"smiles": "Cc1c(/C=C/c2ccc(CN3CCCC[C@H]3C(=O)O)cc2Cl)cccc1-c1ccccc1", "note": "[Compound 3, (S,E)-1-(3-Chloro-4-(2-(2-methyl-[1,1′-biphenyl]-3-yl)vinyl)benzyl)piperidine-2-carboxylic acid]", "IC50": 87.1}
{"smiles": "Cc1c(/C=C/c2ccc(CN3CCCC[C@H]3C(=O)O)cc2C(F)(F)F)cccc1-c1ccccc1", "note": "[Compound 4, (S,E)-1-(4-(2-(2-Methyl-[1,1′-biphenyl]-3-yl)vinyl)-3-trifluoromethylbenzyl)piperidine-2-carboxylic acid]", "IC50": 10.7}
{"smiles": "Cc1cc(/C=C/c2cccc(-c3ccccc3)c2C)c(Cl)cc1CN1CCCC[C@H]1C(=O)O", "note": "[Compound 5, (S,E)-1-(5-Chloro-2-methyl-4-(2-(2-methyl-[1,1′-biphenyl]-3-yl)vinyl)benzyl)piperidine-2-carboxylic acid]", "IC50": 6.5}
{"smiles": "COc1cc(/C=C/c2cccc(-c3ccccc3)c2C)c(C(F)(F)F)cc1CN1CCCC[C@H]1C(=O)O", "note": "[Compound 6, (S,E)-1-(2-Methoxy-4-(2-(2-methyl-[1,1′-biphenyl]-3-yl)vinyl)-5-trifluoromethylbenzyl)piperidine-2-carboxylic acid]", "IC50": 1.6}
{"smiles": "COc1cc(/C=C/c2cccc(-c3ccccc3)c2C#N)c(C(F)(F)F)cc1CN1CCCC[C@H]1C(=O)O", "note": "[Compound 7, (S,E)-1-(4-(2-(2-Cyano-[1,1′-biphenyl]-3-yl)vinyl)-2-methoxy-5-trifluoromethylbenzyl)piperidine-2-carboxylic acid]", "IC50": 1.9}
{"smiles": "Cc1cc(/C=C/c2cccc(-c3ccccc3)c2C#N)c(Cl)cc1CN1CCCC[C@H]1C(=O)O", "note": "[Compound 8, (S,E)-1-(5-Chloro-4-(2-(2-cyano-[1,1′-biphenyl]-3-yl)vinyl)-2-methylbenzyl)piperidine-2-carboxylic acid]", "IC50": 1.6}
{"smiles": "Cc1cc(/C=C/c2cccc(-c3ccccc3)c2C#N)c(Cl)cc1CN1CCOC[C@H]1C(=O)O", "note": "[Compound 9, (S,E)-4-(5-Chloro-4-(2-(2-cyano-[1,1′-biphenyl]-3-yl)vinyl)-2-methylbenzyl)morpholine-3-carboxylic acid]", "IC50": 25.8}
{"smiles": "Cc1cc(CN2CCCC[C@H]2C(=O)O)c(C)cc1/C=C/c1cccc(-c2ccccc2)c1C#N", "note": "[Compound 10]", "IC50": 4.2}
{"smiles": "Cc1cc(CN2CCOC[C@H]2C(=O)O)c(C)cc1/C=C/c1cccc(-c2ccccc2)c1C#N", "note": "[Compound 11, (S,E)-4-(4-(2-(2-Cyano-[1,1′-biphenyl]-3-yl)vinyl)-2,5-dimethylbenzyl)morpholine-3-carboxylic acid]", "IC50": 10.1}
{"smiles": "Cc1cc(CN[C@@](C)(CO)C(=O)O)c(C)cc1/C=C/c1cccc(-c2ccccc2)c1C#N", "note": "[Compound 12, (S,E)-2-((4-(2-(2-Cyano-[1,1′-biphenyl]-3-yl)vinyl)-2,5-dimethylbenzyl)amino)-3-hydroxy-2-methylpropionic acid]", "IC50": 3.4}
{"smiles": "Cc1cc(/C=C/c2cccc(-c3ccccc3)c2C#N)c(Cl)cc1CN1CCNC[C@H]1C(=O)O", "note": "[Compound 13, (S,E)-1-(5-Chloro-4-(2-(2-cyano-[1,1′-biphenyl]-3-yl)vinyl)-2-methylbenzyl)piperazine-2-carboxylic acid]", "IC50": 46}
{"smiles": "Cc1cc(/C=C/c2cccc(-c3ccccc3)c2C#N)c(Cl)cc1CN1CCN(C)C[C@H]1C(=O)O", "note": "[Compound 14, (S,E)-1-(5-Chloro-4-(2-(2-cyano-[1,1′-biphenyl]-3-yl)vinyl)-2-methylbenzyl)-4-methylpiperazine-2-carboxylic acid]", "IC50": 85.2}
{"smiles": "Cc1cc(CN2CCCC[C@H]2C(=O)O)c(OCCCCC#N)cc1/C=C/c1cccc(-c2ccccc2)c1C#N", "note": "[Compound 15, (S,E)-1-(4-(2-(2-Cyano-[1,1′-biphenyl]-3-yl)vinyl)-2-(4-cyanobutoxy)-5-methylbenzyl)piperidine-2-carboxylic acid]", "IC50": 2.1}
{"smiles": "Cc1cc(CNCC(=O)O)c(OCCCCC#N)cc1/C=C/c1cccc(-c2ccccc2)c1C#N", "note": "[Compound 16, (E)-(4-(2-(2-Cyano-[1,1′-biphenyl]-3-yl)vinyl)-2-(4-cyanobutoxy)-5-methylbenzyl)glycine]", "IC50": 14.5}
{"smiles": "Cc1cc(CN2CCOC[C@H]2C(=O)O)c(OCCCCC#N)cc1/C=C/c1cccc(-c2ccccc2)c1C#N", "note": "[Compound 17, (S,E)-4-(4-(2-(2-Cyano-[1,1′-biphenyl]-3-yl)vinyl)-2-(4-cyanobutoxy)-5-methylbenzyl)morpholine-3-carboxylic acid]", "IC50": 4.4}
{"smiles": "Cc1cc(CN2CCNC[C@H]2C(=O)O)c(OCCCCC#N)cc1/C=C/c1cccc(-c2ccccc2)c1C#N", "note": "[Compound 18, (S,E)-1-(4-(2-(2-Cyano-[1,1′-biphenyl]-3-yl)vinyl)-2-(4-cyanobutoxy)-5-methylbenzyl)piperazine-2-carboxylic acid]", "IC50": 22.2}
{"smiles": "Cc1cc(/C=C/c2cccc(-c3ccccc3)c2C#N)c(Cl)cc1CNCC(=O)O", "note": "[Compound 19, (E)-(5-Chloro-4-(2-(2-cyano-[1,1′-biphenyl]-3-yl)vinyl)-2-methylbenzyl)glycine]", "IC50": 6.2}
{"smiles": "N#Cc1c(/C=C/c2cc(CO)c(CN3CCCC[C@H]3C(=O)O)cc2C(F)(F)F)cccc1-c1ccccc1", "note": "[Compound 20, (S,E)-1-(4-(2-(2-Cyano-[1,1′-biphenyl]-3-yl)vinyl)-2-hydroxymethyl-5-trifluoromethylbenzyl)piperidine-2-carboxylic acid]", "IC50": 3.7}
{"smiles": "N#Cc1c(/C=C/c2cc(CO)c(CN3CCOC[C@H]3C(=O)O)cc2C(F)(F)F)cccc1-c1ccccc1", "note": "[Compound 21, (S,E)-4-(4-(2-(2-Cyano-[1,1′-biphenyl]-3-yl)vinyl)-2-hydroxymethyl-5-trifluoromethylbenzyl)morpholine-3-carboxylic acid]", "IC50": 57.6}
{"smiles": "Cc1cc(/C=C/c2cccc(-c3ccccc3)c2C)c(Cl)cc1CN1CCOC[C@H]1C(=O)O", "note": "[Compound 22, (S,E)-4-(5-Chloro-2-methyl-4-(2-(2-methyl-[1,1′-biphenyl]-3-yl)vinyl)benzyl)morpholine-3-carboxylic acid]", "IC50": 11.4}
{"smiles": "Cc1cc(/C=C/c2cccc(-c3ccccc3)c2C)c(Cl)cc1CN1CCNC[C@H]1C(=O)O", "note": "[Compound 23, (S,E)-1-(5-Chloro-2-methyl-4-(2-(2-methyl-[1,1′-biphenyl]-3-yl)vinyl)benzyl)piperazine-2-carboxylic acid]", "IC50": 186}
{"smiles": "COCCOc1cc(/C=C/c2cccc(-c3ccccc3)c2C#N)c(C)cc1CN1CCCC[C@H]1C(=O)O", "note": "[Compound 24, (S,E)-1-(4-(2-(2-Cyano-[1,1′-biphenyl]-3-yl)vinyl)-2-(2-methoxyethoxy)-5-methylbenzyl)piperidine-2-carboxylic acid]", "IC50": 6.8}
{"smiles": "COCCOc1cc(/C=C/c2cccc(-c3ccccc3)c2C#N)c(C)cc1CN1CCOC[C@H]1C(=O)O", "note": "[Compound 25, (S,E)-4-(4-(2-(2-Cyano-[1,1′-biphenyl]-3-yl)vinyl)-2-(2-methoxyethoxy)-5-methylbenzyl)morpholine-3-carboxylic acid]", "IC50": 9.1}
{"smiles": "Cc1cc(CN2CCCC[C@H]2C(=O)O)c(OCCO)cc1/C=C/c1cccc(-c2ccccc2)c1C#N", "note": "[Compound 26]", "IC50": 4.7}
{"smiles": "COCCOc1cc(/C=C/c2cccc(-c3ccccc3)c2C#N)c(C)cc1CN1CCNC[C@H]1C(=O)O", "note": "[Compound 27, (S,E)-1-(4-(2-(2-Cyano-[1,1′-biphenyl]-3-yl)vinyl)-2-(2-methoxyethoxy)-5-methylbenzyl)piperazine-2-carboxylic acid]", "IC50": 57.2}
{"smiles": "N#Cc1c(/C=C/c2cc(CO)c(CN3CCNC[C@H]3C(=O)O)cc2C(F)(F)F)cccc1-c1ccccc1", "note": "[Compound 28, (S,E)-1-(4-(2-(2-Cyano-[1,1′-biphenyl]-3-yl)vinyl)-2-hydroxymethyl-5-trifluoromethylbenzyl)piperazine-2-carboxylic acid]", "IC50": 135}
{"smiles": "Cc1cc(/C=C/c2cccc(-c3ccccc3)c2C#N)c(Cl)cc1CN1CCN(C(N)=O)C[C@H]1C(=O)O", "note": "[Compound 29, (S,E)-4-Carbamoyl-1-(5-chloro-4-(2-(2-cyano-[1,1′-biphenyl]-3-yl)vinyl)-2-methylbenzyl)piperazine-2-carboxylic acid]", "IC50": 62}
{"smiles": "Cc1cc(CN2CCOC[C@H]2C(=O)O)c(OCCO)cc1/C=C/c1cccc(-c2ccccc2)c1C#N", "note": "[Compound 30, (S,E)-4-(4-(2-(2-Cyano-[1,1′-biphenyl]-3-yl)vinyl)-2-(2-hydroxyethoxy)-5-methylbenzyl)morpholine-3-carboxylic acid]", "IC50": 7.7}
{"smiles": "Cc1cc(CN2CCCC[C@H]2C(=O)O)c(O)cc1/C=C/c1cccc(-c2ccccc2)c1C#N", "note": "[Compound 31, (S,E)-1-(4-(2-(2-Cyano-[1,1′-biphenyl]-3-yl)vinyl)-2-hydroxy-5-methylbenzyl)piperidine-2-carboxylic acid]", "IC50": 1160}
{"smiles": "COCCOc1cc(/C=C/c2cccc(-c3ccccc3)c2C#N)c(CN2CCCC[C@H]2C(=O)O)cc1Cl", "note": "[Compound 33, (S,E)-1-(5-Chloro-2-(2-(2-cyano-[1,1′-biphenyl]-3-yl)vinyl)-4-(2-methoxyethoxy)benzyl)piperidine-2-carboxylic acid]", "IC50": "> 10000"}
